Results published in US10385014B2, “Acyloxyalkyl carbamate prodrugs, methods of synthesis and use” (ARBOR PHARMACEUTICALS, LLC, priority 2003, dated 2019).

How the values were obtained:
[1] = Prodrug stability in human plasma in vitro; assay type: in vitro ADME; conditions: 2.0 μM, 37° C.
Procedure: (§1) The stabilities of prodrugs were evaluated in one or more in vitro systems using a variety of tissue preparations following methods known in the art. The chemical stability of prodrugs in aqueous buffers at pH's of 2.0, 7.4 and 8.0 were also measured. […] Each preparation was incubated with test compound at 37° C. for one hour. Aliquots (50 μL) were removed at 0, 30, and 60 min and quenched with 0.1% trifluoroacetic acid in acetonitrile. Samples were then centrifuged and analyzed by LC/MS/MS (see Example 86 below for method details).

[2] = tested on: pancreatin; test: Pancreatin stability; assay type: in vitro ADME, porcine; conditions: 1% (w/v) pancreatin, 5 μM, pH 7.5, 37° C.
Procedure: Pancreatin Stability: Stability studies were conducted by incubating prodrug (5 μM) with 1% (w/v) pancreatin (Sigma, P-1625, from porcine pancreas) in 0.025 M Tris buffer containing 0.5 M NaCl (pH 7.5) at 37° C. for 60 min. The reaction was stopped by addition of 2 volumes of methanol. After centrifugation at 14,000 rpm for […], the supernatant was removed and analyzed by LC/MS/MS.

[3] = Chemical stability of prodrugs in aqueous buffers; assay type: physicochemical
Procedure: as §1

[4] = Prodrug stability in rat liver S9; assay type: in vitro ADME; conditions: Rat Liver S9 (0.5 mg/mL), 2.0 μM, NADPH, 37° C.
Procedure: as §1

[5] = Prodrug stability in human liver S9; assay type: in vitro ADME; conditions: Human Liver S9 (0.5 mg/mL), 2.0 μM, NADPH, 37° C.
Procedure: as §1

[6] = Caco-2 homogenate S9 stability; assay type: in vitro ADME; conditions: Caco-2 S9 (0.5 mg protein per mL), 5 μM, 37° C.
Procedure: Caco-2 Homogenate S9 Stability: Caco-2 cells were grown for 21 days prior to harvesting. Culture medium was removed and cell monolayers were rinsed and scraped off into ice-cold 10 mM sodium phosphate/0.15 M potassium chloride, pH 7.4. Cells were lysed by sonication at 4° C. using a probe sonicator. Lysed cells were then transferred into 1.5 mL centrifuge vials and centrifuged at 9000 g for 20 min at 4° C. The resulting supernatant (Caco-2 cell homogenate S9 fraction) was aliquoted into 0.5 mL vials and stored at −80° C. until used.
For stability studies, prodrug (5 μM) was incubated in Caco-2 homogenate S9 fraction (0.5 mg protein per mL) for 60 min at 37° C. Concentrations of intact prodrug and released baclofen were determined at zero time and 60 minutes using LC/MS/MS.

With CC(C)C(OC(=O)NC[C@H](CC(=O)[O-])c1ccc(Cl)cc1)OC(=O)C(C)(C)C.[Na+] (stereo partly drawn) [(43), Sodium 4-[(1-Pivaloyloxyisobutoxy)carbonylamino]-(3R)-(4-chlorophenyl)-butanoate] the “% of Baclofen Released after 60 min” value [1] was 2%, the “% of Baclofen Released after 60 min” value [2] was 4% and the “% of Baclofen Released after 60 min” value ([3]; aqueous buffer pH 2.0, 37° C.) was 0%. For the same molecule, the “% of Baclofen Released after 60 min” value ([3]; aqueous buffer pH 7.4, 37° C.) was 0%, the “% of Baclofen Released after 60 min” value ([3]; aqueous buffer pH 8.0, 37° C.) was 0% and the “% of Prodrug Remaining after 60 min” value [4] was 3%.

For CC(=O)OC(OC(=O)NC[C@H](CC(=O)[O-])c1ccc(Cl)cc1)C(C)C.[Na+] (stereo partly drawn) [(23), Sodium 4-[(1-Acetoxyisobutoxy)carbonylamino]-(3R)-(4-chlorophenyl)-butanoate], the “% of Prodrug Remaining after 60 min” value [5] was 4%, the “% of Baclofen Released after 60 min” value [1] was 3% and the “% of Baclofen Released after 60 min” value ([3]; aqueous buffer pH 2.0, 37° C.) was 0%. The “% of Prodrug Remaining after 60 min” value ([3]; aqueous buffer pH 2.0, 37° C.) was 107%, the “% of Baclofen Released after 60 min” value ([3]; aqueous buffer pH 7.4, 37° C.) was 1% and the “% of Baclofen Released after 60 min” value ([3]; aqueous buffer pH 8.0, 37° C.) was 2%. For the same molecule, the “% of Prodrug Remaining after 60 min” value [4] was 3%.

For CC(C)C(=O)O[C@@H](OC(=O)NC[C@H](CC(=O)[O-])c1ccc(Cl)cc1)C(C)C.[Na+] [(92), Sodium 4-{[(1S)-Isobutanoyloxyisobutoxy]carbonylamino}-(3R)-(4-chlorophenyl)-butanoate], the “% of Baclofen Released after 60 min” value [5] was 80%, the “% of Prodrug Remaining after 60 min” value [5] was 4% and the “% of Baclofen Released after 60 min” value [1] was 1%. The “% of Baclofen Released after 60 min” value [2] was 7%, the “% of Baclofen Released after 60 min” value ([3]; aqueous buffer pH 2.0, 37° C.) was 0% and the “% of Baclofen Released after 60 min” value ([3]; aqueous buffer pH 7.4, 37° C.) was 0%. For the same molecule, the “% of Baclofen Released after 60 min” value ([3]; aqueous buffer pH 8.0, 37° C.) was 1% and the “% of Prodrug Remaining after 60 min” value [4] was 6%.

With O=C([O-])C[C@@H](CNC(=O)OCOC(=O)c1ccccc1)c1ccc(Cl)cc1.[Na+] [(12), Sodium 4-[(Benzoyloxymethoxy)carbonylamino]-(3R)-(4-chlorophenyl)-butanoate] the “% of Baclofen Released after 60 min” value [6] was 100%, the “% of Prodrug Remaining after 60 min” value [6] was 2% and the “% of Baclofen Released after 60 min” value [5] was 100%. The “% of Prodrug Remaining after 60 min” value [5] was 1%, the “% of Baclofen Released after 60 min” value [1] was 5% and the “% of Baclofen Released after 60 min” value ([3]; aqueous buffer pH 2.0, 37° C.) was 0%. For the same molecule, the “% of Prodrug Remaining after 60 min” value ([3]; aqueous buffer pH 2.0, 37° C.) was 100%, the “% of Baclofen Released after 60 min” value ([3]; aqueous buffer pH 7.4, 37° C.) was 0% and the “% of Prodrug Remaining after 60 min” value ([3]; aqueous buffer pH 7.4, 37° C.) was 100%. The “% of Baclofen Released after 60 min” value ([3]; aqueous buffer pH 8.0, 37° C.) was 0% and the “% of Prodrug Remaining after 60 min” value [4] was 3%.

For CC(C)C(=O)O[C@@H](OC(=O)NC[C@H](CC(=O)O)c1ccc(Cl)cc1)C(C)C [(104)], the “% of Baclofen Released after 60 min” value [5] was 97%, the “% of Prodrug Remaining after 60 min” value [5] was 3% and the “% of Baclofen Released after 60 min” value [1] was 2%. For the same molecule, the “% of Baclofen Released after 60 min” value [2] was 6%, the “% of Prodrug Remaining after 60 min” value [2] was 90% and the “% of Baclofen Released after 60 min” value ([3]; aqueous buffer pH 2.0, 37° C.) was 0%. For the same molecule, the “% of Baclofen Released after 60 min” value ([3]; aqueous buffer pH 7.4, 37° C.) was 0%, the “% of Prodrug Remaining after 60 min” value ([3]; aqueous buffer pH 7.4, 37° C.) was 100% and the “% of Baclofen Released after 60 min” value ([3]; aqueous buffer pH 8.0, 37° C.) was 0%. For the same molecule, the “% of Prodrug Remaining after 60 min” value ([3]; aqueous buffer pH 8.0, 37° C.) was 100% and the “% of Prodrug Remaining after 60 min” value [4] was 3%.

In the case of CC(OC(=O)NC[C@H](CC(=O)[O-])c1ccc(Cl)cc1)OC(=O)C(C)C.[Na+] (stereo partly drawn) [(33), Sodium 4-[(1-Isobutanoyloxyethoxy)carbonylamino]-(3R)-(4-chlorophenyl)-butanoate], the “% of Prodrug Remaining after 60 min” value [6] was 3%, the “% of Baclofen Released after 60 min” value [5] was 101% and the “% of Prodrug Remaining after 60 min” value [5] was 3%. The “% of Baclofen Released after 60 min” value [1] was 4%, the “% of Baclofen Released after 60 min” value ([3]; aqueous buffer pH 2.0, 37° C.) was 0% and the “% of Baclofen Released after 60 min” value ([3]; aqueous buffer pH 7.4, 37° C.) was 0%. The “% of Baclofen Released after 60 min” value ([3]; aqueous buffer pH 8.0, 37° C.) was 0%, the “% of Baclofen Released after 60 min” value [4] was 101% and the “% of Prodrug Remaining after 60 min” value [4] was 4%.

For O=C([O-])C[C@@H](CNC(=O)OCOC(=O)c1cccs1)c1ccc(Cl)cc1.[Na+] [(57), Sodium 4-[(2-Thienylcarbonyloxymethoxy)carbonylamino]-(3R)-(4-chlorophenyl)-butanoate], the “% of Prodrug Remaining after 60 min” value [6] was 2%, the “% of Prodrug Remaining after 60 min” value [5] was 1% and the “% of Baclofen Released after 60 min” value ([3]; aqueous buffer pH 2.0, 37° C.) was 0%. For the same molecule, the “% of Baclofen Released after 60 min” value ([3]; aqueous buffer pH 7.4, 37° C.) was 0%, the “% of Prodrug Remaining after 60 min” value ([3]; aqueous buffer pH 7.4, 37° C.) was 100% and the “% of Baclofen Released after 60 min” value ([3]; aqueous buffer pH 8.0, 37° C.) was 0%. The “% of Prodrug Remaining after 60 min” value ([3]; aqueous buffer pH 8.0, 37° C.) was 100% and the “% of Prodrug Remaining after 60 min” value [4] was 2%.

In the case of CC(C)C(=O)OC(OC(=O)NC[C@H](CC(=O)[O-])c1ccc(Cl)cc1)C1CCCCC1.[Na+] (stereo partly drawn) [(84), Sodium 4-[(1-Isobutanoyloxy-1-cyclohexylmethoxy)carbonylamino]-(3R)-(4-chlorophenyl)-butanoate], the “% of Prodrug Remaining after 60 min” value [5] was 2%, the “% of Baclofen Released after 60 min” value [1] was 4% and the “% of Baclofen Released after 60 min” value ([3]; aqueous buffer pH 2.0, 37° C.) was 0%. The “% of Baclofen Released after 60 min” value ([3]; aqueous buffer pH 7.4, 37° C.) was 0%, the “% of Baclofen Released after 60 min” value ([3]; aqueous buffer pH 8.0, 37° C.) was 1% and the “% of Baclofen Released after 60 min” value [4] was 91%. For the same molecule, the “% of Prodrug Remaining after 60 min” value [4] was 4%.

For CCCC(=O)OC(OC(=O)NC[C@H](CC(=O)[O-])c1ccc(Cl)cc1)C(C)C.[Na+] (stereo partly drawn) [(27), Sodium 4-[(1-Butanoyloxyisobutoxy)carbonylamino]-(3R)-(4-chlorophenyl)-butanoate], the “% of Prodrug Remaining after 60 min” value [5] was 8%, the “% of Baclofen Released after 60 min” value [1] was 12% and the “% of Baclofen Released after 60 min” value [2] was 9%. For the same molecule, the “% of Baclofen Released after 60 min” value ([3]; aqueous buffer pH 2.0, 37° C.) was 0%, the “% of Baclofen Released after 60 min” value ([3]; aqueous buffer pH 7.4, 37° C.) was 0% and the “% of Baclofen Released after 60 min” value ([3]; aqueous buffer pH 8.0, 37° C.) was 1%. For the same molecule, the “% of Prodrug Remaining after 60 min” value [4] was 0%.

With O=C([O-])C[C@@H](CNC(=O)OCOC(=O)C1CCCCC1)c1ccc(Cl)cc1.[Na+] [(14), Sodium 4-[(Cyclohexanecarboxymethoxy)carbonylamino]-(3R)-(4-chlorophenyl)-butanoate] the “% of Prodrug Remaining after 60 min” value [6] was 2%, the “% of Prodrug Remaining after 60 min” value [5] was 2% and the “% of Prodrug Remaining after 60 min” value [2] was 2%. For the same molecule, the “% of Baclofen Released after 60 min” value ([3]; aqueous buffer pH 2.0, 37° C.) was 1%, the “% of Baclofen Released after 60 min” value ([3]; aqueous buffer pH 7.4, 37° C.) was 1% and the “% of Baclofen Released after 60 min” value ([3]; aqueous buffer pH 8.0, 37° C.) was 2%. For the same molecule, the “% of Prodrug Remaining after 60 min” value ([3]; aqueous buffer pH 8.0, 37° C.) was 102% and the “% of Prodrug Remaining after 60 min” value [4] was 2%.

In the case of CCOC(C)(OCC)C(=O)OCOC(=O)NC[C@H](CC(=O)[O-])c1ccc(Cl)cc1.[Na+] [(51), Sodium 4-[(2,2-Diethoxypropanoyloxymethoxy)carbonylamino]-(3R)-(4-chlorophenyl)-butanoate], the “% of Baclofen Released after 60 min” value [6] was 100%, the “% of Prodrug Remaining after 60 min” value [6] was 3% and the “% of Baclofen Released after 60 min” value [5] was 91%. The “% of Prodrug Remaining after 60 min” value [5] was 6%, the “% of Baclofen Released after 60 min” value [2] was 50% and the “% of Baclofen Released after 60 min” value ([3]; aqueous buffer pH 2.0, 37° C.) was 0%. The “% of Baclofen Released after 60 min” value ([3]; aqueous buffer pH 7.4, 37° C.) was 2%, the “% of Baclofen Released after 60 min” value ([3]; aqueous buffer pH 8.0, 37° C.) was 9% and the “% of Prodrug Remaining after 60 min” value [4] was 2%.

For CCC[C@H](OC(=O)NC[C@H](CC(=O)[O-])c1ccc(Cl)cc1)OC(=O)C(C)C.[Na+] [(91), Sodium 4-{[(1S)-Isobutanoyloxybutoxy]carbonylamino}-(3R)-(4-chlorophenyl)-butanoate], the “% of Prodrug Remaining after 60 min” value [6] was 6%, the “% of Prodrug Remaining after 60 min” value [5] was 1% and the “% of Baclofen Released after 60 min” value [1] was 2%. For the same molecule, the “% of Baclofen Released after 60 min” value [2] was 78%, the “% of Baclofen Released after 60 min” value ([3]; aqueous buffer pH 2.0, 37° C.) was 0% and the “% of Baclofen Released after 60 min” value ([3]; aqueous buffer pH 7.4, 37° C.) was 0%. The “% of Baclofen Released after 60 min” value ([3]; aqueous buffer pH 8.0, 37° C.) was 1%.

For CC(OC(=O)NC[C@H](CC(=O)[O-])c1ccc(Cl)cc1)OC(=O)c1ccccc1.[Na+] (stereo partly drawn) [(40), Sodium 4-[(1-Benzoyloxyethoxy)carbonylamino]-(3R)-(4-chlorophenyl)-butanoate], the “% of Prodrug Remaining after 60 min” value [5] was 1%, the “% of Baclofen Released after 60 min” value [1] was 2% and the “% of Baclofen Released after 60 min” value ([3]; aqueous buffer pH 2.0, 37° C.) was 0%. The “% of Baclofen Released after 60 min” value ([3]; aqueous buffer pH 7.4, 37° C.) was 0%, the “% of Baclofen Released after 60 min” value ([3]; aqueous buffer pH 8.0, 37° C.) was 2% and the “% of Prodrug Remaining after 60 min” value [4] was 8%.

With CC(=O)OCOC(=O)NC[C@H](CC(=O)[O-])c1ccc(Cl)cc1.[Na+] [(10), Sodium 4-[(Acetoxymethoxy)carbonylamino]-(3R)-(4-chlorophenyl)-butanoate] the “% of Prodrug Remaining after 60 min” value [6] was 2%, the “% of Prodrug Remaining after 60 min” value [5] was 1% and the “% of Baclofen Released after 60 min” value ([3]; aqueous buffer pH 2.0, 37° C.) was 1%. The “% of Baclofen Released after 60 min” value ([3]; aqueous buffer pH 7.4, 37° C.) was 3%, the “% of Baclofen Released after 60 min” value ([3]; aqueous buffer pH 8.0, 37° C.) was 9% and the “% of Prodrug Remaining after 60 min” value [4] was 0%.
